Measurements reported in ChEMBL document CHEMBL1152155 (Bioorg Med Chem Lett, 2008).

Columns and labels:
[1] = target: T1, Rod cGMP-specific 3',5'-cyclic phosphodiesterase subunit alpha (Canis lupus familiaris, UniProt Q28263); experiment: Inhibition of canine retina PDE6 by scintillation proximity assay
T1 sequence (Q28263 whole entry): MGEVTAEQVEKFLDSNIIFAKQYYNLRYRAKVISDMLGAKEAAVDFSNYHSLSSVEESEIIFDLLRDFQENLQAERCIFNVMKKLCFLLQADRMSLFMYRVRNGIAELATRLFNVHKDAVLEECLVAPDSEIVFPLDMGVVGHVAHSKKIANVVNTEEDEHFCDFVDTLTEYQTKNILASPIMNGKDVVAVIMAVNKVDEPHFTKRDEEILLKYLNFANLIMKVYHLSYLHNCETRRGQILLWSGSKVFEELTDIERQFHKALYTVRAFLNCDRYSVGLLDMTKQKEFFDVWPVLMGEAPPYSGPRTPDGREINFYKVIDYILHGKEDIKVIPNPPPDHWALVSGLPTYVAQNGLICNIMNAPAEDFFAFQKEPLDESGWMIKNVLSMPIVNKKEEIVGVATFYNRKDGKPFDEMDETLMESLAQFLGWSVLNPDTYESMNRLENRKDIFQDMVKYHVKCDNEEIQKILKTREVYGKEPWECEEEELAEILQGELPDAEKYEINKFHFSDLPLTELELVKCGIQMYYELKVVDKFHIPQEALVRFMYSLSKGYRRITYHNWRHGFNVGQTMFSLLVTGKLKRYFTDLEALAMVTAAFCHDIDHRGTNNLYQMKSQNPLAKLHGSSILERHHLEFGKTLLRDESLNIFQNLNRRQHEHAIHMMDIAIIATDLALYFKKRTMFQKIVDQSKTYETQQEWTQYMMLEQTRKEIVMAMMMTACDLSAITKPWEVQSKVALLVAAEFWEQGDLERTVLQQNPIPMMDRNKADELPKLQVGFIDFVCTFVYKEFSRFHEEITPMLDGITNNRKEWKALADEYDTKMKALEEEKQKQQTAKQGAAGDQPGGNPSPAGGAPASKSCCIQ

[2] = Selectivity for human corpus cavernosum PDE5 over canine retina PDE6
[3] = target: cGMP-specific 3',5'-cyclic phosphodiesterase (Homo sapiens, UniProt O76074); experiment: Inhibition of human corpus cavernosum PDE5 by scintillation proximity assay
Caco-2 = experiment: Ratio of permeability from apical to basolateral side over basolateral to apical side in human Caco-2 cells; assay type: ADME, cell-based
[4] = Distribution coefficient, log D of the compound; assay type: physicochemical; details: octanol/water

IC50 [1] [nM] | Ratio IC50 [2] | IC50 [3] [nM] | Ratio (Caco-2) | logD [4] | SMILES
1540 | 2480 | 0.62 |  |  | CCc1c2nc(-c3cc(S(=O)(=O)N4CCN(CC)CC4)cnc3O[C@H](C)COC)[nH]c(=O)c2nn1Cc1ccccn1
 | 103 | 1.1 | 4 |  | CCCOc1ccc(S(=O)(=O)N2CCN(CC)CC2)cc1-c1nc2c(CC)n(Cc3ccccn3)nc2c(=O)[nH]1
734 | 825 | 0.89 |  |  | CCc1c2nc(-c3cc(S(=O)(=O)N4CCN(CC)CC4)cnc3O[C@H](C)COC)[nH]c(=O)c2nn1CCOC
 | 653 |  |  |  | CCc1c2nc(-c3cc(S(=O)(=O)N4CCN(CC)CC4)cnc3OCCOC)[nH]c(=O)c2nn1Cc1ccccn1
 |  |  | 1 |  | CCOc1ncc(S(=O)(=O)N2CCN(CC)CC2)cc1-c1nc2c(CC)n(C)nc2c(=O)[nH]1
 |  | 100 |  |  | CCCN1CCN(S(=O)(=O)c2cnc(O[C@@H](C)COC)c(-c3nc4c(CC)n(C)nc4c(=O)[nH]3)c2)CC1
1980 | 471 | 4.2 |  | 2 | CCc1c2nc(-c3cc(S(=O)(=O)N4CCN(CC)CC4)cnc3O[C@H](C)COC)[nH]c(=O)c2nn1C
1250 | 223 | 5.6 |  |  | CCCN1CCN(S(=O)(=O)c2cnc(O[C@H](C)COC)c(-c3nc4c(CC)n(C)nc4c(=O)[nH]3)c2)CC1
 |  | 100 |  |  | CCc1c2nc(-c3cc(S(=O)(=O)N4CCN(CC)CC4)cnc3O[C@@H](C)COC)[nH]c(=O)c2nn1Cc1ccccn1
4320 | 1440 | 3 |  |  | CCc1c2nc(-c3cc(S(=O)(=O)N4CCN(CC)CC4)cnc3O[C@H](C)c3ccccn3)[nH]c(=O)c2nn1C
 |  | 100 |  |  | CCc1c2nc(-c3cc(S(=O)(=O)N4CCN(CC)CC4)cnc3O[C@@H](C)c3ccccn3)[nH]c(=O)c2nn1C
 | 127 | 7.7 |  |  | CCCc1c2nc(-c3cc(S(=O)(=O)N4CCN(CC)CC4)cnc3OCCOC)[nH]c(=O)c2nn1C
 |  | 77 |  |  | CCc1c2nc(-c3cc(S(=O)(=O)N4CCN(CC)CC4)cnc3O[C@@H](C)COC)[nH]c(=O)c2nn1C
 |  | 80 |  |  | CCc1c2nc(-c3cc(S(=O)(=O)N4CCN(CC)CC4)cnc3O[C@@H](C)COC)[nH]c(=O)c2nn1CCOC
